Measurements: US6867293B2, “Polynucleotide constructs having at least one transcriptional enhancer and encoding a modified rice EPSPS enzyme” (Syngenta Limited, priority 2000, dated 2005)
pIC50, pKi: −log10 of the molar value. Where a name gives a salt, the structure may show the parent alone.

Assays:
[1] = test system: sensitive w/t form of EPSPS (endogenous); test: EPSPS assay of plant extracts +/- 0.1 mM glyphosate, sensitive w/t form; format: biochemical, corn; conditions: 0.1 mM N-(phosphonomethyl)glycine, 0.1 mM 14C-PEP, 0.75 mM shikimate-3-Pi
Procedure: (§1) Assays are carried out generally according to the radiochemical method of Padgette et al 1987 (Archives of Biochemistry and Biophysics, 258(2) 564-573) with K+ ions as the major species of cationic counterion. Assays in a total volume of 50 μl, in 50 mM Hepes(KOH) pH 7.0 at 25° C., contain purified enzyme or plant extract (see below) diluted appropriately in Hepes pH 7.0 containing 10% glycerol, and 5 mM DTT, ^14C PEP either as variable substrate (for kinetic determinations) or fixed at 100 or 250 μM and shikimate 3 Phosphate (K+ salt) at 2 or 0.75 mM as indicated. Optionally, for assays of crude plant extracts, assays also contain 5 mM KF and/or 0.1 mM ammonium molybdate. Assays are started with the addition of ^14C phosphoenolpyruvate (cyclohexylammonium+salt) and stopped after 2-10 minutes (2 minutes is preferable) with the addition of 50 μl of a solution of 1 part 1M acetic acid and 9 parts ethanol. […] Apparent Km and Vmax values are determined by least squares fit to a hyperbola with simple weighting using the Grafit 3.09b from Erithacus Software Ltd. Km values are generally ascertained using 8-9 concentrations of variable substrate ranging from Km/2-10 Km and triplicate points. […]

[2] = test system: resistant form of EPSPS; test: EPSPS assay of plant extracts +/- 0.1 mM glyphosate, resistant form; format: biochemical, rice; conditions: 0.1 mM N-(phosphonomethyl)glycine, 0.1 mM 14C-PEP, 0.75 mM shikimate-3-Pi, estimated
Procedure: as §1

[3] = biological target: T1, mutant form of rice EPSPS (Oryza sativa, UniProt A0A0N9WU17, P177S/T173I); test: EPSPS enzyme assay and kinetic constants, purified mutant rice EPSPS expressed in E. coli; format: biochemical
T1 sequence (A0A0N9WU17 72-515 T173I/P177S): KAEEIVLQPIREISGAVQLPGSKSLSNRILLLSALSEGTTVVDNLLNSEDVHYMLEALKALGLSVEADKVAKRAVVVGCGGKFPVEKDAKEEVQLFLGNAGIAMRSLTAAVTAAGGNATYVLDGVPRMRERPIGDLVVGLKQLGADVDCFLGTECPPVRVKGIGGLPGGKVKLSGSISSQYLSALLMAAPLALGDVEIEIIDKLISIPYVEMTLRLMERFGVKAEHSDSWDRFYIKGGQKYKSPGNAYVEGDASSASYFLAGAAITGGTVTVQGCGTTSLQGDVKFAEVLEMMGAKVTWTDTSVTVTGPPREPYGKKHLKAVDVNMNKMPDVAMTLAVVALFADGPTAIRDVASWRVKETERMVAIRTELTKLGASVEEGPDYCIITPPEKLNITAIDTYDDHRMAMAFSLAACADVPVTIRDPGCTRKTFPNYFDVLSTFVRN
Procedure: as §1

SMILES | inhibition of sensitive w/t EPSPS [1] [%] | inhibition of resistant (tolerant) EPSPS [2] [%] | inhibition of resistant (tolerant) EPSPS ([2]; listed as N-(phosphonomethyl)glycine) [%] | pIC50 [3] | pKi [3]
O=C(O)CNCP(=O)(O)O [glyphosate, N-phosphonomethylglycine] | > 98 | ~8 | < 8.5 |  | 
O=C(O)CNCP(=O)(O)O [potassium salt of glyphosate] |  |  |  | ~3.22 | ~3.70
